One block for each compound: values may come before it.
Key:
[1] = tested on: CT26 mouse colon cancer cells; test: Induction of interferon-beta levels in CT26 cells in the presence of STING agonist DMXAA (FIG. 3); assay type: cell-based
CT26 cells [2] = test: Proliferation of CT26 cells in the presence of PARP7 inhibitors (CellTiter-Glo); assay type: cell-based, mouse; details: 4 days incubation
Description: Example F: Proliferation of CT26 Cells in the Presence of PARP7 Inhibitors
CT26 cells were plated in a 384-well plate and allowed to adhere for several hours before being treated with Compound 18B. Cells were incubated with compound for 4 days prior to processing with CellTiter-Glo reagent (Promega). Luminescence was measured with a Perkin Elmer Envision and percent inhibition was calculated using the vehicle (DMSO) average as 0% inhibition. Non-linear regression analysis was performed using a 4 parameter (variable slope) fit in GraphPad Prism.

[3] = tested on: panel of cancer cell lines; test: Inhibition of cancer cell growth, 72 hrs (CellTiter-Glo), GI50, Table A-2; assay type: cell-based
Description: (§1) Example C: Inhibition of Cancer Cell Growth by Treatment with PARP7 Inhibitors
(§2) Table A-2 and Table A-3 (below) represents the concentration that causes 50% growth inhibition (GI50) in a panel of cancer cell lines with Compound 18B and Compound 561. Cells were plated into 384-well plates at a pre-specified density in fetal bovine serum-containing media. Cells were treated with compound or vehicle (DMSO) 24 hrs later, and a day zero plate was collected for analysis. Test compound plates were incubated continuously for 72 hrs (Table A-2) or 144 hours (Table A-3) cell growth was assessed using a luminescent cell viability assay (CellTiter-Glo, Promega). The GI50 was determined by correcting for the cell count at time zero (time of treatment) and plotting data as percent growth relative to vehicle-treated cells.

[4] = tested on: NCI-H1373 lung cancer cells; test: Inhibition of cancer cell growth in NCI-H1373 cells (FIG. 2); assay type: cell-based, human
[5] = tested on: RAW264.7 mouse macrophages; test: Induction of interferon-beta levels in RAW264.7 macrophages in the presence of STING agonist DMXAA (FIG. 3); assay type: cell-based
TIPARP (PARP7) = TIPARP (PARP7) (Homo sapiens (Human), UniProt Q7Z3E1); test: Enzymatic assay for inhibition of PARP7: displacement of biotinylated Probe A (TR-FRET); assay type: binding; details: TR-FRET displacement of Probe A from TIPARP
TIPARP (PARP7), sequence (Q7Z3E1 whole entry): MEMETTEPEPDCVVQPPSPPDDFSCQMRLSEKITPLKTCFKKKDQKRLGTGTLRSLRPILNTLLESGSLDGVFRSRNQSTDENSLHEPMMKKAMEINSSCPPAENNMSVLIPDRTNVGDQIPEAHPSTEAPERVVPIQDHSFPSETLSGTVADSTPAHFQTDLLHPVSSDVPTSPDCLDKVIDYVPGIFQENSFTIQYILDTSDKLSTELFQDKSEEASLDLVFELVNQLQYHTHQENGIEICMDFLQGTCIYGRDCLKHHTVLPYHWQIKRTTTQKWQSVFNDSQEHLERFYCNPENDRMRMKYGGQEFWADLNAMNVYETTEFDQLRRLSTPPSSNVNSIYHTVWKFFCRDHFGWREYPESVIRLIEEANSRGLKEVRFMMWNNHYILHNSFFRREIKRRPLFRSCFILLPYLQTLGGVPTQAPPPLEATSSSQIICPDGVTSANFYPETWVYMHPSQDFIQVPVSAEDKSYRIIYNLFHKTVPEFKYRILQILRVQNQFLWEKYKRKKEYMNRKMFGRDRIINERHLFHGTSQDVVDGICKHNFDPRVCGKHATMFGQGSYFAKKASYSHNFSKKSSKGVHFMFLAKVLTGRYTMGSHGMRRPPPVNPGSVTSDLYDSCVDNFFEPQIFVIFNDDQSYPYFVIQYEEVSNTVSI
Description: 20 nL of a dose response curve of each test compound was spotted in black 384-well polystyrene proxiplates (Perkin Elmer) using a Mosquito (TTP Labtech). […] Reactions were incubated at 25° C. for an additional 30 min, then read on an Envision plate reader equipped with a LANCE/DELFIA top mirror (Perkin Elmer) using excitation of 320 nm and emission of 615 nm and […] with a 90 μs delay. The ratio of the 665/615 nm emission were calculated for each well to determine the amount of complex of TIPARP and Probe A in each well. […] The Hill Coefficient is normally allowed to float but may also be fixed at 1 in a 3-parameter fit. Y is the % inhibition and X is the compound concentration.

4T1-luc2-1A4 cells = test: Inhibition of tumor growth, 4T1 murine syngeneic model, subcutaneous dosing; assay type: in vivo; details: 4T1 orthotopic syngeneic, BALB/c mice; Compound 98 500 mg/kg S.C. QD, Compound 93A 100 mg/kg S.C. BID, 21 days
Description: (§3) Example G: Inhibition of Tumor Growth by Treatment with PARP7 Inhibitors
For the 4T1 study female BALB/c mice were inoculated orthotopically in the mammary fat pad with 4T1-luc2-1A4 cells for tumor development. Eight days after tumor inoculation, 45 mice with tumor size ranging from 63-88 mm^3 (average tumor size 67 mm^3) were selected and assigned into 3 groups using stratified randomization with 15 mice in each group based upon their tumor volumes. The treatments were started from the next day post randomization (defined randomization day as D0) and were treated with vehicle (0.5% methylcellulose+0.2% Tween 80), Compound 98 (500 mg/kg S.C. QD*21 days), Compound 93A (100 mg/kg S.C. BID*21 days) respectively. The tumor sizes were measured three times per week during the treatment. The entire study was terminated on D20.
(§4) Mean tumor volume and SEM for both studies are plotted. Statistical significance, calculated using two-tailed unpaired t-tests in which each treatment group was compared to vehicle control, is indicated by an asterisk. Statistics were performed on groups with less than 20% animal loss (D21 for CT26, D17 for 4T1).

CT26 cells [6] = test: Inhibition of tumor growth, CT26 murine syngeneic model, subcutaneous dosing; assay type: in vivo; details: BALB/c mice, Compound 98 500 mg/kg S.C. QD, Compound 93A 100 mg/kg S.C. BID, 21 days
Description: as §3
For the CT26 study BALB/c mice were inoculated subcutaneously at the right flank with CT26 cells for tumor development. Four days after tumor inoculation, 36 mice with tumor size ranging from 40-55 mm^3 (average tumor size 47 mm^3) were selected and assigned into 3 groups using stratified randomization with 12 mice in each group based upon their tumor volumes. The treatments were started from the next day post randomization (defined randomization day as day 0) and were treated with vehicle (0.5% methylcellulose+0.2% Tween 80), Compound 98 (500 mg/kg S.C. QD*21 days), Compound 93A (100 mg/kg S.C. BID*21 days) respectively. The tumor sizes were measured three times per week during the treatment. The entire study was terminated on day 21.
as §4

PARP7 = PARP7 (Homo sapiens (Human), UniProt Q7Z3E1); test: PARP7 inhibition potency (Table A-1); assay type: binding; details: comparison of separated isomers; see Table A-1
PARP7, sequence (Q7Z3E1 whole entry): as above

CT26 cells [7] = test: Inhibition of tumor growth by oral dosing, murine CT26 colon cancer syngeneic model; assay type: in vivo; details: BALB/c mice, 125-500 mg/kg BID or 500 mg/kg QD, 21 days
Description: (§5) Example H: Inhibition of Tumor Growth by Oral Dosing with a PARP7 Inhibitor
(§6) The effect of Compound 561 on tumor growth was studied in a human NCI-H1373 lung cancer xenograft and a murine CT26 colon cancer syngeneic model.
For the CT26 study, BALB/c mice were inoculated subcutaneously in the right flank with CT26 cells for tumor development. After 5 days of cell inoculation, mice with 36-79 mm^3 tumors were randomized into treatment groups with mean tumor volumes of 54 mm^3. The treatments were started from the next day post randomization (defined randomization day as day 0) and were treated with vehicle (25 or 50% Labrasol) or Compound 561 BID (2 times a day every 12 hours) at doses ranging from 125-500 mg/kg or QD (once a day) at 500 mg/kg for 21 days by oral gavage or needle subcutaneously. Tumor volumes were determined by manual calipers every 2-3 days. Mean tumor volume and SEM are plotted. BID: twice a day; PO: per oral administration; QD: once a day; SC: per subcutaneous administration. The first two doses for vehicle and Compound 561 500 mg/kg in the QD groups were delivered by subcutaneous injection. […] Statistical significance is calculated using two-way ANOVA followed by Bonferroni post-tests in which the treatment groups were compared to vehicle control (****P<0.0001).

[8] = tested on: panel of cancer cell lines; test: Inhibition of cancer cell growth, 144 hours (CellTiter-Glo), GI50, Table A-3; assay type: cell-based; details: MDA-MIB-468 cell line, breast adenocarcinoma
Description: as §1, §2

[9] = tested on: murine CT26 colon cancer syngeneic model; test: Tumor growth in murine CT26 colon cancer syngeneic model (FIG. 6A-C, 7B); assay type: in vivo, mouse; details: once or twice daily administration, FIG. 7B
[10] = tested on: human NCI-H1373 lung cancer xenograft; test: Tumor growth in human NCI-H1373 lung cancer xenograft (FIG. 7A); assay type: in vivo; details: once daily administration
NCI-H1373 cells = test: Inhibition of tumor growth by oral dosing, human NCI-H1373 lung cancer xenograft; assay type: in vivo, SCID mice
Description: as §5, §6
For the NCI-H1373 study, SCID mice were inoculated subcutaneously in the right flank with NCI-H1373 cells for tumor development. After 5 days of tumor growth, mice with 89-148 mm^3 tumors were randomized into treatment groups with mean tumor volumes of 121 mm^3. The treatments were started from the next day post randomization (defined randomization day as day 0) and were treated with vehicle (50% Labrasol) or Compound 561 (62.5, 125, 250, and 500 mg/kg) once a day for 28 days by oral gavage. Tumor volumes were determined by manual calipers every 2-3 days. Mean tumor volume and SEM are plotted. QD: once a day; PO: per oral administration. Statistical significance is calculated using two-way ANOVA followed by Bonferroni post-tests in which the treatment groups were compared to vehicle control (****P<0.0001).

Compound: N#Cc1ccc(N2CCN(C(=O)c3cccc(OCCOc4cccc5c4CN(c4cn[nH]c(=O)c4C(F)(F)F)C5)c3)CC2)nc1 [Example 39, 6-[4-([3-[2-([2-[6-Oxo-5-(trifluoromethyl)-1,6-dihydropyridazin-4-yl]-2,3-dihydro-1H-isoindol-4-yl]oxy)ethoxy]phenyl]carbonyl)piperazin-1-yl]pyridine-3-carbonitrile]
growth of NCI-H1373 lung cancer cells [4]: dose-dependent decrease in growth

Compound: N#Cc1ccc(N2CCN(C(=O)CCOC[C@@H]3c4ccccc4CN3c3cn[nH]c(=O)c3C(F)(F)F)CC2)nc1 [Example 93A, 6-[4-(3-[[(1S)-2-[6-oxo-5-(trifluoromethyl)-1,6-dihydropyridazin-4-yl]-2,3-dihydro-1H-isoindol-1-yl]methoxy]propanoyl)piperazin-1-yl]pyridine-3-carbonitrile]
growth of NCI-H1373 lung cancer cells [4]: dose-dependent decrease in growth
tumor growth (4T1-luc2-1A4 cells): significantly reduce tumor growth
tumor growth (CT26 cells [6]): significantly reduce tumor growth

Compound: N#Cc1ccc(N2CCN(C(=O)CCOC[C@@H]3CCCN3c3cn[nH]c(=O)c3C(F)(F)F)CC2)nc1 [Example 98, 6-[4-(3-[[(2S)-1-[6-Oxo-5-(trifluoromethyl)-1,6-dihydropyridazin-4-yl]pyrrolidin-2-yl]methoxy]propanoyl)piperazin-1-yl]pyridine-3-carbonitrile]
interferon-beta (IFN-β) levels [1]: induction of interferon-beta (IFN-β) levels
growth of NCI-H1373 lung cancer cells [4]: dose-dependent decrease in growth
tumor growth (4T1-luc2-1A4 cells): significantly reduce tumor growth
interferon-beta (IFN-β) levels [5]: induction of interferon-beta (IFN-β) levels
tumor growth (CT26 cells [6]): significantly reduce tumor growth

Continued, in another order:

GI50 ([3]; 72 h, GSS cell line, stomach adenocarcinoma): 100 to 1000 nM
GI50 ([3]; LUDLU-1, 72 h, LUDLU-1 cell line, lung squamous cell carcinoma): 100 to 1000 nM
IC50 (TIPARP (PARP7)): < 100 nM
Compound: N#Cc1ccc(N2CCN(C(=O)c3cccc(OC[C@@H]4c5ccccc5CN4c4cn[nH]c(=O)c4C(F)(F)F)c3)CC2)nc1 [Example 18B, 6-[4-[(3-[[(1S)-2-[6-Oxo-5-(trifluoromethyl)-1,6-dihydropyridazin-4-yl]-2,3-dihydro-1H-isoindol-1-yl]methoxy]phenyl)carbonyl]piperazin-1-yl]pyridine-3-carbonitrile]
interferon-beta (IFN-β) levels [1]: induction of interferon-beta (IFN-β) levels
proliferation in CT26 cells in vitro (CT26 cells [2]): do not inhibit proliferation
growth of NCI-H1373 lung cancer cells [4]: dose-dependent decrease in growth
interferon-beta (IFN-β) levels [5]: induction of interferon-beta (IFN-β) levels

relative potency of the enantiomers (PARP7): more potent enantiomer
Compound: N#Cc1ccc(N2CCN(C(=O)C[C@H]3CC[C@@H]([C@@H]4CCCN4c4cn[nH]c(=O)c4C(F)(F)F)O3)CC2)nc1 [Example 141B, 6-(4-[2-[(2R,5S)-5-[(2S)-1-[6-oxo-5-(trifluoromethyl)-1,6-dihydropyridazin-4-yl]pyrrolidin-2-yl]oxolan-2-yl]acetyl]piperazin-1-yl)pyridine-3-carbonitrile]

IC50 (TIPARP (PARP7)): < 100 nM
Compound: COC[C@@H](COc1cn[nH]c(=O)c1C(F)(F)F)OCCC(=O)N1CCN(c2ncc(Cl)cn2)CC1 [Example 560A, 5-[(2S)-2-[3-[4-(5-chloropyrimidin-2-yl)piperazin-1-yl]-3-oxopropoxy]-3-methoxypropoxy]-4-(trifluoromethyl)-2,3-dihydropyridazin-3-one]

IC50 (TIPARP (PARP7)): 100 to 1000 nM
Compound: COC[C@H](COc1cn[nH]c(=O)c1C(F)(F)F)OCCC(=O)N1CCN(c2ncc(Cl)cn2)CC1 [Example 560B, 5-[(2R)-2-[3-[4-(5-chloropyrimidin-2-yl)piperazin-1-yl]-3-oxopropoxy]-3-methoxypropoxy]-4-(trifluoromethyl)-2,3-dihydropyridazin-3-one]

GI50 [8]: ≥ 1000 nM
Compound: C[C@@H](COCCC(=O)N1CCN(c2ncc(C(F)(F)F)cn2)CC1)Nc1cn[nH]c(=O)c1C(F)(F)F [Example 561, 5-[[(2S)-1-(3-oxo-3-[4-[5-(trifluoromethyl)pyrimidin-2-yl]piperazin-1-yl]propoxy)propan-2-yl]amino]-4-(trifluoromethyl)-2,3-dihydropyridazin-3-one]
tumor growth (CT26 cells [7]): significantly reduces tumor growth
tumor growth [9]: significantly reduces tumor growth
tumor growth [10]: significantly reduces tumor growth
tumor regression (NCI-H1373 cells; 62.5 to 500 mg/kg once a day for 28 days, all dose levels): complete tumor regression
tumor growth (NCI-H1373 cells; SCID mice, once daily oral gavage, 28 days): significantly reduces tumor growth

From patent US10870641B2, “Pyridazinones as PARP7 inhibitors” (Ribon Therapeutics Inc., priority 2018, dated 2020)
